# Measurements from US8044018B2, “Reagents and methods for smooth muscle therapies” (Arizona Board of Regents, priority 2008, dated 2011).
# Non-standard residues stand in square brackets, D forms with d. No end group written: not given here. *: point of attachment. FITC = O=C1OC2(c3ccc(O)cc3Oc3cc(O)ccc32)c2ccc(NC(=S)*)cc21; Fmoc = O=C(OCC1c2ccccc2-c2ccccc21)*; pS = N[C@@H](COP(=O)(O)O)C(=O)O; βAla = NCCC(=O)O
# Experiments:
# [1] = system: rabbit aorta; experiment: Muscle bath: rabbit aorta rings pre-contracted with norepinephrine, endothelium not denuded; conditions: pre-contracted with norepinephrine 10^−7 M; for relaxation and inhibition of spasm: peptides retained the Fmoc moiety
# Method: Rings of rabbit aorta in which the endothelium was not denuded, were suspended in a muscle bath containing bicarbonate buffer (120 mM NaCl, 4.7 mM KCl, 1.0 mM MgSO4, 1.0 mM NaH2PO4, 10 mM glucose, 1.5 mM CaCl2, and 25 mM […], pH 7.4), equilibrated with 95% O2/5% CO2, at 37° C. at one gram of tension for 2 hours. The rings were pre-contracted with norepinephrine (10^−7 M) and treated with RRRRRRApSAPLP (SEQ ID NO:309) or RRRRWLRRApSAPLP (SEQ ID NO:310). […] The peptides used were prepared by Fmoc-based peptide synthesis, and the peptides retained the Fmoc moiety at the amino terminus of the peptide.
# [2] = system: Rat aortic smooth muscle cells; experiment: LPA-induced actin fiber formation, phalloidin staining and confocal microscopy; assay type: cell-based
# Method: Rat aortic smooth muscle cells were treated with lyophosphatidic acid (LPA) in the presence and absence of FITC-TAT-pHSP20 (FITC-NH2-β[…]*APLPGLK-COOH, 50 uM) (SEQ ID NO:307) Lysophosphatidic acid (LPA) is a substance which promotes actin fiber formation.
# The cells were fixed and stained with phalloidin and images were obtained with confocal microscopy. […] These studies confirm that HSP20 has a direct role in modulating actin fiber formation.
# [3] = system: Mesangial cells; experiment: Wrinkle assay: mesangial cells transfected with GFP, WT HSP20 or S16A-HSP20, on silicone rubber substrata; assay type: cell-based; conditions: dibutyryl cAMP 10 ΦM, 0-90 minutes
# Method: The experiment was performed in the following fashion: Mesangial cells were transfected with vectors containing green fluorescent protein (GFP) alone, GFP fused to the 5′ end of the wild type cDNA for HSP20 (WT), or GFP fused to an HSP20 construct in which the PKA phosphorylation site was mutated to an alanine (S16A-HSP20) (MUT). The cells were plated on a silicone rubber substrata in the presence of serum for 48 hours. The plates were then placed on the stage of a Zeiss Inverted Fluorescence Microscope with DeltaVision image acquisition and deconvolution software (Applied Precision, Issaquah, Wash.). The DeltaVision software was configured to eight different cells (x and y axis) on each plate with 7 z-axis images taken at […] intervals. Fluorescent and phase contrast images were obtained such that the cells and silicone membrane were imaged in close succession. During the scanning process, the z-axis of each cell was monitored to assure that the imaging stacks were maintained at the appropriate level as the cells relaxed on the silicone membrane. Baseline images were acquired for one hour. The cells were then treated with […] dibutyryl cAMP (10 ΦM) for 0 minutes, 30 minutes, 60 minutes, or 90 minutes, and the results are illustrated in FIG. 1. […]
# [4] = system: PKG transfected rat aortic smooth muscle cells; experiment: Wrinkle assay: PKG transfected rat aortic smooth muscle cells on silicone substrata; assay type: cell-based; conditions: 10 uM for 30 minutes
# Method: Rat aortic smooth muscle cells that are multiply passaged or that stably express PKG were cultured on a silicone substrata in the presence of serum. The cells were imaged with phase contrast microscopy (10× magnification). […] To determine if the wrinkles were reversible, PKG transfected cells were treated with dibutyryl cAMP (10 uM) for 30 minutes.
# [5] = system: Mesangial cells; experiment: Actin filament staining (rhodamine phalloidin) of transfected mesangial cells; assay type: cell-based; conditions: 10 μM for 30 minutes; cells transfected with EGFP alone or S16A-HSP20
# From the text: Transfected mesangial cells were fixed and the actin filaments were stained with fluorescent-labeled phalloidin.
# [6] = system: Bovine aortic endothelial cells; experiment: Focal adhesion disassembly, interference reflection microscopy; assay type: cell-based; conditions: HSP20 peptides 10 uM for 30 minutes; serum starved one hour
# Method: Bovine aortic endothelial cells were plated on glass coverslips (80K-100K cells) in DMEM plus 10% FBS over night (24 wells plate). The cells were serum starved (no serum) for one hour and incubated in the presence of the peptide analogues of HSP20 [NH2-βAYARRAAARQARAWLRRAS*APLPGLK-COOH-pHSP20 (10 uM) (SEQ ID NO:307) or scrambled analogues of HSP20 [NH2-βAYARRAAARQARAPRKS*LWALGRPLA-COOH-scHSP20 (10 uM)] (SEQ ID NO:308) for 30 minutes. The cells were fixed with 3% glutaraldehyde and the number of focal adhesions was detected with interference reflection microscopy. The Hep I peptide was used as a positive control. This peptide binds to the heparin binding site of thrombospondin in induces focal adhesion disassembly. […] The results are illustrated in FIG. 7.
# [7] = system: A10 cells; experiment: Serum-induced proliferation, cell counts; assay type: cell-based; conditions: 50 μM in 10% FBS; 24 hours; serum starved 3 days beforehand
# Method: A10 cells were serum starved for 3 days. The cells were then treated with media containing 10% fetal bovine serum, PTD-pHSP20 (NH2-βAYARRAAARQARAWLRRAS*APLPGLK-COOH (SEQ ID NO:307), or PTD-scrambled-pHSP20 (NH2-βAYARRAAARQARAPRKS*LWALGRPLA-COOH (SEQ ID NO:308) (50 μM). After 24 hours cell counts were performed. The number of cells per well in the serum starved plates averaged […] (+/−7.4) compared to 276+/−6.1 in wells containing 10% fetal bovine serum (FBS). In the presence of FBS, the phosphopeptide analogues of HSP20 containing a transduction domain inhibited of smooth muscle proliferation, 149+/−14.6 compared to transduction of the scrambled phosphopeptide analogue of HSP20 (242.3+/−15.3 cells/well). The results of these experiments are illustrated in FIG. 9.
# [8] = system: Mesangial cells; experiment: Wrinkle assay: mesangial cells on silicone substrata treated with phosphopeptide; assay type: cell-based; conditions: 50 μM peptide; plated 48 hours in serum; phase contrast microscopy; n=10
# Method: Mesangial cells were plated on a silicone substrata in the presence of serum and after 48 hours the cells were treated with the FITC-TAT-HSP20 phosphopeptide (50 μM). The number of wrinkles under the cells was determined at the time points indicated using phase contrast microscopy (n=10, *=p<0.05 compared to time 0). Results of this Experiment are illustrated in FIG. 2.
# [9] = system: bovine carotid artery smooth muscle; experiment: Muscle bath: serotonin pre-contracted strips of bovine carotid artery, denuded of endothelium; conditions: cumulative doses added every 10 minutes; n=5
# Method: Transverse strips of bovine carotid artery smooth muscle, denuded of endothelium, were suspended in a muscle bath containing bicarbonate buffer (120 mM NaCl, 4.7 mM KCl, 1.0 mM MgSO4, 1.0 mM NaH2PO4, 10 mM glucose, 1.5 mM CaCl2, and 25 mM […], pH 7.4), equilibrated with 95% O2/5% CO2, at 37° C. at one gram of tension for 2 hours. The muscles were pre-contracted with serotonin ([…] for 10 minutes) and cumulative doses of FITC-phosphoHSP20-TAT, FITC-scrambled phosphoHSP20-TAT (FITC-NH2-β[…]*LWALGRPLA-COOH, open circles) (SEQ ID NO:305), or FITC-TAT (FITC-NH2-β[…], closed triangles) (SEQ ID NO:306) were added every 10 minutes. The force is depicted as a percentage of the maximal serotonin contraction (n=5, *=p<0.05 compared to 0 peptide added). Representative strips were fixed in 4% paraformaldehyde and examined under fluorescence microscopy (40× magnification).
compound,measurement,setting,value
RRRRRRApSAPLP (Fmoc-RRRRRRA[pS]APLP),speed and duration of relaxation compared with the longer peptides,[1],relaxation was faster and the muscles remained in a relaxed state for longer
same,relaxation and inhibition of spasm,[1],rapid and complete relaxation and inhibition of spasm
"Lysophosphatidic acid [LPA, reference compound]",actin stress fiber formation,[2]; LPA alone,robust actin stress fiber formation
CCCC(=O)Nc1ncnc2c1ncn2[C@@H]1O[C@@H]2COP(=O)(O)O[C@H]2[C@H]1OC(=O)CCC [dibutyryl cAMP],wrinkles under the cells (relaxation),[3]; cells expressing S16A-HSP20 (MUT),did not relax
same,wrinkles under the cells (relaxation),[3]; control cells expressing GFP,relaxed over time
same,wrinkle formation,[4],decrease in wrinkle formation
same,central actin stress fibers,[5],loss of central actin stress fibers in EGFP but not S16A-HSP20 cells
"NH2-βAYARRAAARQARAPRKS*LWALGRPLA-COOH (AYARRAAARQARAPRKSLWALGRPLA; HELM PEPTIDE1{[bAla].Y.A.R.R.A.A.A.R.Q.A.R.A.P.R.K.[O=C([C@H](COP(=O)(O)O)N[*:1])[*:2]].L.W.A.L.G.R.P.L.A}$$$$V2.0; SMILES CC(C)C[C@H](NC(=O)[C@H](C)NC(=O)[C@H](Cc1c[nH]c2ccccc12)NC(=O)[C@H](CC(C)C)NC(=O)[C@H](COP(=O)(O)O)NC(=O)[C@H](CCCCN)NC(=O)[C@H](CCCNC(=N)N)NC(=O)[C@@H]1CCCN1C(=O)[C@H](C)NC(=O)[C@H](CCCNC(=N)N)NC(=O)[C@H](C)NC(=O)[C@H](CCC(N)=O)NC(=O)[C@H](CCCNC(=N)N)NC(=O)[C@H](C)NC(=O)[C@H](C)NC(=O)[C@H](C)NC(=O)[C@H](CCCNC(=N)N)NC(=O)[C@H](CCCNC(=N)N)NC(=O)[C@H](C)NC(=O)[C@H](Cc1ccc(O)cc1)NC(=O)CCN)C(=O)NCC(=O)N[C@@H](CCCNC(=N)N)C(=O)N1CCC[C@H]1C(=O)N[C@@H](CC(C)C)C(=O)N[C@@H](C)C(=O)O) [PTD-scrambled-pHSP20, Scrambled analogue of the HSP20 phosphopeptide with PTD, control, reference compound]",focal adhesion disassembly (number of focal adhesions),[6],no significant effect
same,number of cells per well,[7],242.3+/−15.3 cells/well
"NH2-βAGGGGYGRKKRRQRRRWLRRAS*APLPGLK-COOH ([βAla]GGGGYGRKKRRQRRRWLRRA[pS]APLPGLK-OH; not fully specified (N-terminus); printed as NH2-βAGGGGYGRKKRRQRRRWLRRAS*APLPGLK-COOH; also: FITC label, position not given here) [FITC-TAT-HSP20]",number of wrinkles under the cells (relaxation of the cells),[8],time dependent loss of wrinkles
same,contractile force as percentage of the maximal serotonin contraction,[9],dose dependent decrease
same,central actin stress fibers,"[2]; LPA in the presence of peptide, 50 uM",loss of central actin stress fibers
FITC-NH2-βAGGGGYGRKKRRQRRRPRKS*LWALGRPLA-COOH ({FITC}-[βAla]GGGGYGRKKRRQRRRPRK[pS]LWALGRPLA-OH) [FITC-scrambled phosphoHSP20-TAT],contractile force as percentage of the maximal serotonin contraction,[9],no significant effect
RRRRWLRRApSAPLP (Fmoc-RRRRWLRRA[pS]APLP),speed and duration of relaxation compared with the longer peptides,[1],relaxation was faster and the muscles remained in a relaxed state for longer
same,relaxation and inhibition of spasm,[1],rapid and complete relaxation and inhibition of spasm
"FITC-NH2-βAGGGGYGRKKRRQRRR ({FITC}-[βAla]GGGGYGRKKRRQRRR) [FITC-TAT, FITC-labelled TAT transduction domain alone, control]",contractile force as percentage of the maximal serotonin contraction,[9],no significant effect
